In patent US20240120519A1, “NON-AQUEOUS REDOX FLOW BATTERIES” (ENI S.P.A., priority 2020, published 2024):
Read-outs that look alike come from different tables or passages of the source.

How the values were obtained:
[1] = Cyclic voltammetry measurements (oxidation-reduction potentials); assay type: physicochemical; details: for E°′ ACN (V vs Fc/Fc^+): acetonitrile; for E°′ ACN (V vs Fc/Fc^+) / E°′ PC (V vs Fc/Fc^+): 0.1 M TBABF4, glassy carbon working electrode, 25° C., normalised to Fc/Fc^+; for E°′ PC (V vs Fc/Fc^+): propylene carbonate
Method: Cyclic voltammetry measurements were carried out in a hemi-cell with a three-electrode configuration, with glassy carbon working electrode, platinum counter electrode and silver/silver chloride (Ag/AgCl) reference electrode. The oxidation-reduction potentials E°′Ox/Red were derived from the position of the forward peak (Epf) and the return peak (Epr):
and the values were normalised with respect to the intersolvent ferrocene/ferrocenium (Fc/Fc^+) couple.
Evaluations were carried out on an Autolab PGSTAT 128N analytical instrument at scan rates of 10, 20, 50, 70, 100, and 200 mV/s. All evaluations were carried out in triplicate at room temperature (25° C.). For the purpose, use was made of solutions containing: • benzothiadiazole (1) (Aldrich) (5×10^−3 M) and tetrabutylammonium tetrafluoro-borate (TBABF4) (Aldrich) (0.1 M) in acetonitrile (Aldrich) (non-aqueous liquid negative electrolyte of the negative compartment) (BTD); • benzothiadiazole (1) (Aldrich) (5×10^−3 M) and tetrabutylammonium tetrafluoro-borate (TBABF4) (Aldrich) (0.1 M) in propylene carbonate (Aldrich) (non-aqueous liquid negative electrolyte of the negative compartment) (BTD); • 4,7-di[2-(propyloxycarbonylethyloxy)phenyl]-benzothiadiazole [compound (2) obtained in Example 7] (5×10^−3 M) and tetrabutylammonium tetrafluoroborate (TBABF4) (Aldrich) (0.1 M) in acetonitrile (Aldrich) (non-aqueous liquid negative electrolyte of the negative compartment) (BTD); • 4,7-di[2-(propyloxycarbonylethyloxy)phenyl]-benzothiadiazole [compound (2) obtained in Example 7] (5×10^−3 M) and tetrabutylammonium tetrafluoroborate (TBABF4) (Aldrich) (0.1 M) in propylene carbonate (Aldrich) (non-aqueous liquid negative electrolyte of the negative compartment) [BTD (2)]; • 4,7-di[2-methoxycarbonylethyloxy)phenyl]-benzothiadiazole [compound (3) obtained in Example 1] (5×10^−3 M) and tetrabutylammonium tetrafluoroborate (TBABF4) (Aldrich) (0.1 M) in acetonitrile (Aldrich) (non-aqueous liquid negative electrolyte of the negative compartment) [BTD (3)]; • 4,7-di[2-(methoxycarbonylethyloxy)phenyl]-benzothiadiazole [compound (3) obtained in Example 1] (5×10^−3 M) and tetrabutylammonium tetrafluoroborate (TBABF4) (Aldrich) (0.1 M) in propylene carbonate (Aldrich) (non-aqueous liquid negative electrolyte of the negative compartment) [BTD (3)]; • 4,7-di[2-(2-(2-methoxyethoxy)ethoxy)phenyl]-benzothiadiazole [compound (4) obtained in Example 3] (5×10^−3 M) and tetrabutylammonium tetrafluoroborate (TBABF4) (Aldrich) (0.1 M) in acetonitrile (Aldrich) (non-aqueous liquid negative electrolyte of the negative compartment) [BTD (4)]; • 4,7-di[2-(2-(2-methoxyethoxy)ethoxy)phenyl]-benzothiadiazole [compound (4) obtained in Example 3] (5×10^−3 M) and tetrabutylammonium tetrafluoroborate (TBABF4) (Aldrich) (0.1 M) in propylene carbonate (Aldrich) (non-aqueous liquid negative electrolyte of the negative compartment) [BTD (4)]; • 4,7-di[2,6-di(propyloxycarbonylethyloxy)phenyl]-benzothiadiazole [compound (5) obtained in Example 4] (5×10^−3 M) and tetrabutylammonium tetrafluoroborate (TBABF4) (Aldrich) (0.1 M) in acetonitrile (Aldrich) (non-aqueous liquid negative electrolyte of the negative compartment) [BTD (5)]; • 4,7-di[2,6-di(propyloxycarbonylethyloxy)phenyl]-benzothiadiazole [compound (5) obtained in Example 4] (5×10^−3 M) and tetrabutylammonium tetrafluoroborate (TBABF4) (Aldrich) (0.1 M) in propylene carbonate (Aldrich) (non-aqueous liquid negative electrolyte of the negative compartment) [BTD (5)]; • 4,7-di[2,5-di(propyloxycarbonylethyloxy)phenyl]-benzothiadiazole [compound (6) obtained in Example 5] (5×10^−3 M) and tetrabutylammonium tetrafluoroborate (TBABF4) (Aldrich) (0.1 M) in acetonitrile (Aldrich) (non-aqueous liquid negative electrolyte of the negative compartment) [BTD (6)]; • 4,7-di[2,5-di(propyloxycarbonylethyloxy)phenyl]-benzothiadiazole [compound (6) obtained in Example 5] […]

[2] = Stability tests in cyclic voltammetry; assay type: physicochemical; details: 1×10^−3 M, 0.1 M TBABF4 in acetonitrile
Method: Stability tests were carried out using the same electrochemical cell as in Example 9.
For the purpose, use was made of solutions containing: • 4,7-di[2-(propyloxycarbonylethyloxy)phenyl]-benzothiadiazole [Compound (2) obtained in Example 2 or 7] (1×10^−3 M) and tetrabutylammonium tetrafluoroborate (TBABF4) (Aldrich) 0.1 M in acetonitrile (Aldrich) (non-aqueous liquid negative electrolyte of the negative compartment).

[3] = Non-aqueous redox flow battery (RFB) charge/discharge tests
Method: Charge-discharge tests were carried out using an electrochemical cell with a Teflon® membrane (DuPont), having a surface area equal to approximately 0.8 cm^2, placed between two platinum electrodes (Methrohm) having a surface area equal to approximately 0.07 cm^2. The electrochemical cell was then assembled and sealed in a container containing argon (Ar).
For the purpose, use was made of solutions containing: • 4,7-di[2-(propyloxycarbonylethyloxy)phenyl]-benzothiadiazole [Compound (2) obtained in Example 7]: (1×10^−3 M) and tetrabutylammonium tetrafluoroborate (TBABF4) (Aldrich) (0.1 M) in acetonitrile (Aldrich) (non-aqueous liquid negative electrolyte of the negative compartment), degassed with argon (Ar) and subjected to electrolysis in order to obtain benzothiadiazole in reduced form [(BTD (2)·^−)]; • tetrakisacetonitrile copper(I) tetrafluoroborate [Cu(NCCH3)4·BF4] (1×10^−3 M) and tetrabutylammonium tetrafluoroborate (TBABF4) (Aldrich) (0.1 M) in acetonitrile (Aldrich) (non-aqueous liquid positive electrolyte of the positive compartment) (Cu triflate), degassed with argon (Ar).
6 ml of the above solutions were introduced into the respective compartments.
The test was carried out using a potentiostat/galvanostat Autolab PGSTAT 128N (Metrohom) at room temperature (25° C.).
Charge and discharge curves were carried out to assess the performance of the electrolytes in the cell. […]

CCOC(=O)CCCOc1ccccc1-c1ccc(-c2ccccc2OCCCC(=O)OCC)c2nsnc12 [Compound (2)]
E°′ ACN (V vs Fc/Fc^+) [1]: −1.91 V vs Fc/Fc^+ | E°′ PC (V vs Fc/Fc^+) [1]: −1.84 V vs Fc/Fc^+ | potential difference (E°) in open circuit ([1]; solution in acetonitrile, E°=(E°1)−(E°2) against Cu triflate (0.62 V)): 2.53 V | stability over 150 successive redox cycles [2]: the cycles are superimposable | stability during charge/discharge (oxidation-reduction cycles) [3]: good stability during oxidation-reduction cycles

CCOC(=O)COc1ccccc1-c1ccc(-c2ccccc2OCC(=O)OCC)c2nsnc12 [Compound (3)]
E°′ ACN (V vs Fc/Fc^+) [1]: −1.86 V vs Fc/Fc^+ | E°′ PC (V vs Fc/Fc^+) [1]: −1.82 V vs Fc/Fc^+

COCCOCCOc1ccccc1-c1ccc(-c2ccccc2OCCOCCOC)c2nsnc12 [Compound (4), 4,7-di[2-(2-(2-methoxyethoxy)ethoxy)phenyl]-benzothiadiazole]
E°′ ACN (V vs Fc/Fc^+) [1]: −1.90 V vs Fc/Fc^+ | E°′ PC (V vs Fc/Fc^+) [1]: −1.85 V vs Fc/Fc^+

CCOC(=O)CCCOc1cccc(OCCCC(=O)OCC)c1-c1ccc(-c2c(OCCCC(=O)OCC)cccc2OCCCC(=O)OCC)c2nsnc12 [Compound (5)]
E°′ ACN (V vs Fc/Fc^+) [1]: −2.00 V vs Fc/Fc^+ | E°′ PC (V vs Fc/Fc^+) [1]: −1.95 V vs Fc/Fc^+

CCOC(=O)CCCOc1ccc(OCCCC(=O)OCC)c(-c2ccc(-c3cc(OCCCC(=O)OCC)ccc3OCCCC(=O)OCC)c3nsnc23)c1 [Compound (6)]
E°′ ACN (V vs Fc/Fc^+) [1]: −1.88 V vs Fc/Fc^+ | E°′ PC (V vs Fc/Fc^+) [1]: −1.83 V vs Fc/Fc^+

CCOC(=O)CCCOc1ccc(-c2ccc(-c3ccc(OCCCC(=O)OCC)cc3OCCCC(=O)OCC)c3nsnc23)c(OCCCC(=O)OCC)c1 [Compound (7)]
E°′ ACN (V vs Fc/Fc^+) [1]: −1.93 V vs Fc/Fc^+ | E°′ PC (V vs Fc/Fc^+) [1]: −1.88 V vs Fc/Fc^+

O=S(=O)([O-])C(F)(F)F.O=S(=O)([O-])C(F)(F)F.[Cu+2] [Cu triflate, copper(II) trifluoromethanesulphonate, reference compound]
E°′ ACN (V vs Fc/Fc^+) [1]: 0.62 V vs Fc/Fc^+ | E°′ PC (V vs Fc/Fc^+) [1]: 0.43 V vs Fc/Fc^+

CC#N.CC#N.CC#N.CC#N.F[B-](F)(F)F.[Cu+] [Cu, tetrakisacetonitrile copper(I) tetrafluoroborate, reference compound]
stability during charge/discharge (oxidation-reduction cycles) ([3]; 1×10^−3 M in acetonitrile, 0.1 M TBABF4, Teflon membrane, charge 2.5 V, discharge 0.5 V, 240 seconds each, 25° C.): good stability during oxidation-reduction cycles
